In patent US20240317752A1, “6-SUBSTITUTED-9H-PURINE DERIVATIVES AND RELATED USES” (Black Diamond Therapeutics, Inc., priority 2021, published 2024):

The compounds below were run against T1, BaF3 BRAF-KIAA1549 fusion cells (Homo sapiens, UniProt P15056) (assay: BaF3 BRAF-KIAA1549 fusion cell proliferation assay (CellTiterGlo)). Conditions: 96 hours incubation, potency code.
T1 construct: The BRAF-KIAA1549 fusion mutant was subcloned into pMXs-IRES-Blasticidin (RTV-016, Cell Biolabs, San Diego, CA); fused on or other part: Q9HCM3 (UPF0606 protein KIAA1549)
Assay type: cell-based
How it was run: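 BaF3 cells stably transduced with a BRAF-KIAA1549 fusion, blasticidin-selected and growing without IL-3, were treated with compound for 96 h in RPMI/10% heat-inactivated FBS. Viability read as ATP content by CellTiterGlo luminescence, normalised to DMSO-treated cells. IC50 by Levenberg-Marquardt fit.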

T1 sequence (P15056 whole entry, change not shown, the tested form may be a part): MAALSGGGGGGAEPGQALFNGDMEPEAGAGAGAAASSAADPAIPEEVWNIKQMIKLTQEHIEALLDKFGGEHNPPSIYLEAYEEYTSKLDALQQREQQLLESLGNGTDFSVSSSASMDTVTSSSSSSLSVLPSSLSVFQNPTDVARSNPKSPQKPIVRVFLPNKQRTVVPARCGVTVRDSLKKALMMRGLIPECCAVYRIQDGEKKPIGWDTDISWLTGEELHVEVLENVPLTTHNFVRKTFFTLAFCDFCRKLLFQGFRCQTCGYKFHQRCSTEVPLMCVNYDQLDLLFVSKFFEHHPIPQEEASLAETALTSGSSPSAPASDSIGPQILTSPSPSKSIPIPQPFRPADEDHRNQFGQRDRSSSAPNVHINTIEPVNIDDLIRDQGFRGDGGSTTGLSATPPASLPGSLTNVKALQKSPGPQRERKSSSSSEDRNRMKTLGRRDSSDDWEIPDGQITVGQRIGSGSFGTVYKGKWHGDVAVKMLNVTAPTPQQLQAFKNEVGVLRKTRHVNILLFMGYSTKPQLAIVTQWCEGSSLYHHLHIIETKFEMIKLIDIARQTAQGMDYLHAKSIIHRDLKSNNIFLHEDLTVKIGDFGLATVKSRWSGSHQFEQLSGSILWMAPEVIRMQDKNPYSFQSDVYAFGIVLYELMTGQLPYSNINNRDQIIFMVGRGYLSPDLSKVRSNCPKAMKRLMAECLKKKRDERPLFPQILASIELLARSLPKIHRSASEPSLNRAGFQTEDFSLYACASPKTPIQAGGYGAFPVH

Q: For `Cc1ccc(NC(=O)c2cc(C3CC3)c(Cl)cn2)cc1Nc1ncccc1-c1ncnc2[nH]cnc12` [Compound I-56, N-(3-((3-(9H-purin-6-yl)pyridin-2-yl)amino)-4-methylphenyl)-5-chloro-4-cyclopropylpicolinamide], which GI50 is on record?
A: ≥ 500 nM

Q: How did the GI50 turn out when `Cc1ccc(NC(=O)c2ccc(C)c(C#N)n2)cc1Nc1ncccc1-c1ncnc2[nH]cnc12` [Compound I-51, N-(3-(3-(9H-purin-6-yl)pyridin-2-ylamino)-4-methylphenyl)-6-cyano-5-methylpicolinamide] was run?
A: ≥ 500 nM

Q: With `Cc1ccc(NC(=O)c2cccc(C(C)(C)C#N)c2)nc1Nc1ncccc1-c1ncnc2[nH]cnc12` [Compound I-57, N-(6-((3-(9H-purin-6-yl)pyridin-2-yl)amino)-5-methylpyridin-2-yl)-3-(2-cyanopropan-2-yl)benzamide] as the compound, how does the GI50 read?
A: ≥ 500 nM

Q: Which GI50 does the source give for `Cc1ncc(NC(=O)c2ccc(Cl)c(C#N)c2)cc1Nc1ncccc1-c1ncnc2[nH]cnc12` [Compound I-40, N-(5-((3-(9H-purin-6-yl)pyridin-2-yl)amino)-6-methylpyridin-3-yl)-4-chloro-3-cyanobenzamide] here?
A: ≥ 500 nM

Q: For `Cc1ccc(NC(=O)CN2CCCCCC2)cc1Nc1ncccc1-c1ncnc2[nH]cnc12` [IA-110, N-(3-((3-(9H-purin-6-yl)pyridin-2-yl)amino)-4-methylphenyl)-2-(azepan-1-yl)acetamide], which GI50 is on record?
A: 20 to 100 nM

Q: Which GI50 does the source give for `Cc1ccc(NC(=O)CC2CCNC(C(F)(F)F)C2)cc1Nc1ncccc1-c1ncnc2[nH]cnc12` (stereo not shown) [Compound I-76, N-(3-((3-(9H-purin-6-yl)pyridin-2-yl)amino)-4-methylphenyl)-2-(2-(trifluoromethyl)piperidin-4-yl)acetamide] here?
A: ≥ 500 nM

Q: Which GI50 does the source give for `Cc1ccc(NC(=O)c2cc(C(F)(F)F)ccn2)cc1Nc1ncc(F)cc1-c1ncnc2[nH]cnc12` [IA-118, N-(3-((5-fluoro-3-(9H-purin-6-yl)pyridin-2-yl)amino)-4-methylphenyl)-4-(trifluoromethyl)picolinamide] here?
A: 20 to 100 nM
